Type in all cases: in vivo
In assay [1] the test system is db/db mouse. As to the kind of experiment: Kidney function in the db/db mouse model of type 2 diabetes: urine albumin (ELISA), urinary creatinine (Cobas Integra), 24-hour metabolic caging. The note with it: db/db mice, 50 mg/kg/day oral gavage; for albumin/creatinine ratio: vs db/db+V group. As for the experimental part:
Creatinine was determined using a Cobas Integra autoanalyzer. Excretion of urine albumin was measured by ELISA kit.
Urinary creatinine was determined using a Cobas Integra autoanalyzer.
Excretion of urine albumin was measured by ELISA kit.
The renoprotective effects of Urolithin A were assessed in a mouse model of type 2 diabetes (the db/db mouse).
A mouse model of diabetes was used endorsed by the Diabetic Complications Consortium (DiabComp/AMDCC), the db/db mouse model, which is obese and insulin resistant “type 2”.
Mice were purchased from The Jackson Laboratory (Stock No: 000642) in order to obtain sizeable cohorts to run groups in tandem, which is crucial for reliable testing of mitochondrial function. Eight to nine week-old male db/db mice (n=15 per group) received Urolithin A by oral gavage (50 mg/kg/day) for a duration of 10 weeks. Db/m (control) or db/db (diabetic) mice were randomized to the following treatments:
A suspension of 0.5% carboxymethylcellulose (CMC; Sigma #419303) was first prepared. Urolithin A (16.67 mg/ml) was prepared by dissolving in 0.5% CMC solution and left stirring at room temperature. Urolithin A was dosed at 50 mg/kg/day. The weights of the mice were used to calculate the dosage of Urolithin A to be administered to each mouse, based on weekly bodyweight measurements. Approximately 1001 of 0.5% CMC was given to mice daily in the vehicle groups.
At baseline, mid-point and one week prior to euthanasia, mice underwent metabolic caging for 24 hours to collect urine and to measure food and water intake. Body composition by EchoMRI was performed at baseline, mid-point and two weeks prior to euthanasia to determine fat mass and lean body mass. At baseline and week 9, an oral glucose tolerance test was performed to assess glucose handling. Fasting plasma glucose was measured using a glucose colorimetric assay kit (Cayman, Ann Arbor, USA) at baseline, 15 min and 60 min after glucose treatment. Blood pressure measurements were performed at week 10.
All analyses were performed by ANOVA followed by post hoc paired analysis using Tukey's least significant difference method, correcting for multiple comparisons. A value for p<0.05 was considered as statistically significant. A Z-score of 2 was used to exclude outliers.
One week prior to cull, 24-hour metabolic caging was performed to collect urine, and blood was collected from the submandibular vein. Urine and plasma creatinine was determined using the Cobas Integra autoanalyzer. Urine albumin was measured by ELISA (Bethyl, USA). Blood pressure was determined by tail cuff plethysmography.
Excretion of albumin in the urine over a 24-hour period was measured by ELISA kit (Bethyl). At the endpoint of the study, there was a significant increase in albuminuria in db/db mice when compared to db/m mice. […] Creatinine clearance was calculated from urine and plasma creatinine measured using the Creatinine plus ver.2 (CREP2) assay on a Cobas Integra 400 plus autoanalyzer (Roche Diagnostics). There was a decline in kidney function in db/db mice (Diabetic) as measured by an increase in albuminuria and reduced creatinine clearance at 18-19 weeks of age. Treatment of UA delayed the progression of albuminuria in the db/db mice.
A general note: In an ELISA, binding on a coated surface is turned into a signal by an enzyme label.

Assay [2] concerns db/db mouse. As to the kind of experiment: Whole body composition (lean mass) by EchoMRI in db/db mice. The note with it: 50 mg/kg/day oral gavage, 10 weeks, vs db/db+V group. The protocol: The lean mass of muscles was measured using EchoMRI. Mice were purchased from The Jackson Laboratory (Stock No: 000642) in order to obtain sizeable cohorts to run groups in tandem, which is crucial for reliable testing of mitochondrial function. Eight to nine week-old male db/db mice (n=15 per group) received Urolithin A by oral gavage (50 mg/kg/day) for a duration of 10 weeks. Db/m (control) or db/db (diabetic) mice were randomized to the following treatments: A suspension of 0.5% carboxymethylcellulose (CMC; Sigma #419303) was first prepared. Urolithin A (16.67 mg/ml) was prepared by dissolving in 0.5% CMC solution and left stirring at room temperature. Urolithin A was dosed at 50 mg/kg/day. The weights of the mice were used to calculate the dosage of Urolithin A to be administered to each mouse, based on weekly bodyweight measurements. Approximately 1001 of 0.5% CMC was given to mice daily in the vehicle groups. At baseline, mid-point and one week prior to euthanasia, mice underwent metabolic caging for 24 hours to collect urine and to measure food and water intake. […] Fasting plasma glucose was measured using a glucose colorimetric assay kit (Cayman, Ann Arbor, USA) at baseline, 15 min and 60 min after glucose treatment. […] Whole body composition including lean mass and fat mass were measured using EchoMRI at baseline, midpoint and endpoint.

In assay [3] the test system is db/db mouse. In words: Muscle mass of tibialis anterior and quadriceps by weighing in db/db mice. The note with it: 50 mg/kg/day oral gavage, 10 weeks, vs db/db+V group. As for the experimental part:
The muscle mass of the tibialis anterior was measured by weighing on a precision scale. […] The muscle mass of the quadriceps was measured by weighing on a precision scale. Mice were purchased from The Jackson Laboratory (Stock No: 000642) in order to obtain sizeable cohorts to run groups in tandem, which is crucial for reliable testing of mitochondrial function. Eight to nine week-old male db/db mice (n=15 per group) received Urolithin A by oral gavage (50 mg/kg/day) for a duration of 10 weeks. Db/m (control) or db/db (diabetic) mice were randomized to the following treatments: A suspension of 0.5% carboxymethylcellulose (CMC; Sigma #419303) was first prepared. Urolithin A (16.67 mg/ml) was prepared by dissolving in 0.5% CMC solution and left stirring at room temperature. Urolithin A was dosed at 50 mg/kg/day. The weights of the mice were used to calculate the dosage of Urolithin A to be administered to each mouse, based on weekly bodyweight measurements. Approximately 1001 of 0.5% CMC was given to mice daily in the vehicle groups. All analyses were performed by ANOVA followed by post hoc paired analysis using Tukey's least significant difference method, correcting for multiple comparisons. A value for p<0.05 was considered as statistically significant. […] Whole body composition including lean mass and fat mass were measured using EchoMRI at baseline, midpoint and endpoint. […]

Assay [4] deals with db/db mouse. As to the kind of experiment: Urinary carnosine, anserine and S-adenosylmethionine, semi-quantitative, HILIC chromatography and ESI-orbitrap mass spectrometry, in db/db mice. The note with it: 50 mg/kg/day oral gavage, 10 weeks, vs db/db+V group. The protocol: Urinary carnosine was determined in a semi-quantitative manner using cold methanol:water:chloroform (5:3:5 (v/v)) extraction to separate the polar metabolites and apolar metabolites. In addition, a protein layer remained in the middle between the two phases. The polar phase was dried overnight in a vacuum centrifuge at 4° C. and 5 mbar, and was dissolved in 60 μl 60% (v/v) acetonitrile:water prior to analysis. The protein layer was quantified with a bicinchoninic acid (BCA) assay (ThermoFisher Scientific) and used for later normalization of the metabolite concentrations. Two microliters of each sample were injected into a hydrophilic interaction chromatography (HILIC) analytical column. The separation was achieved by applying a linear solvent gradient. As mobile phase, solvent A was H2O with 10 mM ammonium acetate (NH4Ac) and 0.04% (v/v) ammonium hydroxide (NH4OH), pH ˜9.3, and solvent B was acetonitrile (ACN). The eluting metabolites, including carnosine, were analyzed with an orbitrap mass spectrometer (Orbitrap Fusion Lumos Tribrid, Thermo Scientific) equipped with a heated electrospray ionisation (H-ESI) source. […]
Urinary anserine was determined in a semi-quantitative manner using cold methanol:water:chloroform (5:3:5 (v/v)) extraction to separate the polar metabolites and apolar metabolites. […] The protein layer was quantified with a bicinchoninic acid (BCA) assay (ThermoFisher Scientific) and used for later normalization of the metabolite concentrations. […] The eluting metabolites, including anserine, were analyzed with an orbitrap mass spectrometer (Orbitrap Fusion Lumos Tribrid, Thermo Scientific) equipped with a heated electrospray ionization (H-ESI) source. […]
Urinary S-adenosylmethionine was determined in a semi-quantitative manner using cold methanol:water:chloroform (5:3:5 (v/v)) extraction to separate the polar metabolites and apolar metabolites. […] The protein layer was quantified with a bicinchoninic acid (BCA) assay (ThermoFisher Scientific) and used for later normalization of the metabolite concentrations. […]

Assay [5] deals with db/db mouse. In words: Femur bone mass by weighing in db/db mice. The note with it: 50 mg/kg/day oral gavage, 10 week treatment, vs db/db+V group. As for the experimental part:
The bone femur mass was determined by weighing on a precision scale. Mice were purchased from The Jackson Laboratory (Stock No: 000642) in order to obtain sizeable cohorts to run groups in tandem, which is crucial for reliable testing of mitochondrial function. Eight to nine week-old male db/db mice (n=15 per group) received Urolithin A by oral gavage (50 mg/kg/day) for a duration of 10 weeks. Db/m (control) or db/db (diabetic) mice were randomized to the following treatments: A suspension of 0.5% carboxymethylcellulose (CMC; Sigma #419303) was first prepared. Urolithin A (16.67 mg/ml) was prepared by dissolving in 0.5% CMC solution and left stirring at room temperature. Urolithin A was dosed at 50 mg/kg/day. The weights of the mice were used to calculate the dosage of Urolithin A to be administered to each mouse, based on weekly bodyweight measurements. Approximately 1001 of 0.5% CMC was given to mice daily in the vehicle groups. All analyses were performed by ANOVA followed by post hoc paired analysis using Tukey's least significant difference method, correcting for multiple comparisons. A value for p<0.05 was considered as statistically significant. A Z-score of 2 was used to exclude outliers. Left and right femur bones were collected at the end of study, after 10 week treatment, and both femurs were cleaned and snap frozen, weighed and stored at −80° C.

As to `O=c1oc2cc(O)ccc2c2ccc(O)cc12` [UA, 3,8-dihydroxyurolithin], in the assay on db/db mouse [1] (10 weeks, vs vehicle-treated group), the urinary creatinine result was “higher”. Further, in the assay on db/db mouse [1] (after 5 weeks of treatment (midpoint)), the albumin/creatinine ratio result is listed as “significantly decreased”. Further, in the assay on db/db mouse [1] (after 10 weeks of treatment (endpoint)), the albumin/creatinine ratio result is given as “significantly decreased”. Besides, in the assay with db/db mouse [1] (at midpoint (5 weeks)), the “albuminuria (24-hour urine albumin excretion)” value was “did affect albuminuria”. The progression of albuminuria result in the assay on db/db mouse [1] (baseline to 10 weeks, vs vehicle-treated counterparts) is listed as “significantly delayed”. Besides, the lean mass result with db/db mouse [2] is recorded as “significantly increased”. In addition, in the assay with db/db mouse [3], the “muscle mass of the quadriceps” value is on record as “significantly increased” and the “muscle mass of the tibialis anterior” value is listed as “significantly increased”. Also, in the assay with db/db mouse [4], the “levels of urinary S-adenosylmethionine (SAM)” value is recorded as “significantly increased”, the “levels of urinary anserine” value is listed as “significantly increased” and the “levels of urinary carnosine” value is on record as “significantly increased”. In addition, the femur bone mass entry with db/db mouse [5] is recorded as “significantly increased”.

The record behind these values is patent US20250049754A1, “COMPOSITIONS COMPRISING UROLITHIN FOR TREATING MUSCLE DECLINE AND A KIDNEY DYSFUNCTION” (SOCIETE DES PRODUITS NESTLE S.A., priority 2021, published 2025).
